From patent US20080051417A1, “Uses of selective cyclooxygenase-1 inhibitors” (priority 2006, published 2008)
Read-outs that look alike come from different tables or passages of the source.

Tests used:
[1] = tested on: 6-keto-PGF1α (the stable metabolite of PGI2); experiment: Myocardial 6-keto-PGF1α levels (ELISA) in treated rats; type: in vivo, Sprague-Dawley rats; conditions: for effect on pioglitazone+atorvastatin increase of myocardial 6-keto-PGF1α: pioglitazone+atorvastatin pretreated rats
Description: (§1) Rats received the following treatment (4 rats in each group): 1) i.v. saline and oral water; 2) i.v. saline and oral aspirin 10 mg/kg; 3) i.v. saline and oral aspirin 50 mg/kg; 4) i.v. LPS and oral water; 5) i.v. LPS and oral aspirin 10 mg/kg; 6) i.v. LPS and oral aspirin 50 mg/kg; 7) i.v. LPS and oral aspirin 200 mg/kg; 8) oral pioglitazone (10 mg/kg/d) and atorvastatin (10 mg/kg/d); 9) oral pioglitazone+atorvastatin and aspirin 10 mg/kg; 10) oral pioglitazone+atorvastatin and aspirin 50 mg/kg; 11) oral pioglitazone+atorvastatin and aspirin 50 mg/kg and i.v. 1400 W, a specific iNOS inhibitor; or 12) oral pioglitazone+atorvastatin, oral water, and i.v. 1400 W, a specific iNOS inhibitor. LPS (10 mg/kg) was dissolved in 1 ml of saline and was administered intravenously 8 hours before harvesting the hearts. Aspirin was dissolved in water and administered by oral gavage 8 hours before harvesting the hearts. Atorvastatin and pioglitazone were administered by oral gavage once daily for 3 days; last dose was administered 16 hours before harvesting the hearts. 1400 W (1 mg/kg) was administered i.v. 15 minutes before harvesting the hearts. All hearts were analyzed for myocardial 15-epi-LPXA4, lipoxin A4, 6-keto-PGF1α (the stable metabolite of PGI2) and PGE2 levels.
(§2) The hearts were rapidly explanted, rinsed in cold PBS (pH 7.4), containing 0.16 mg/ml heparin to remove red blood cells and clots, frozen in liquid nitrogen and stored at −70° C. For 15-epi-LPXA4 and lipoxin A4 determination, myocardial samples from the anterior left ventricular wall were homogenized in ethanol (5 ml/g) and centrifuged at 10,000 g X15 min at 4° C. The supernatant was diluted with water and acidified to pH 3.5 with 1N HCl. The sample was loaded into C-18 Sep-Pak light column (Waters Corporation, Milford, Mass.) and washed with 1 ml of water followed by 1 ml of petroleum ether. The sample was eluted with 2 ml of methyl formate. The methyl formate was evaporated with N2 and the residue was dissolved in extraction buffer. The manufacturer instruction of the ELISA Kits was followed. For myocardial 6-keto-PGF1α and PGE2 levels myocardial samples were homogenized in RIPA lysis buffer with 10% proteinase inhibitor (Sigma) and centrifuged. The supernatants were collected and stored on ice. Measurement of 6-keto-PGF1α (the stable hydrolysis product of PGI2) and PGE2 were performed as instructed by the manufacturer.

15-epi-LPXA4 [2] = experiment: Myocardial 15-epi-LPXA4 levels (ELISA) in treated rats; type: in vivo, Sprague-Dawley rats; conditions: for effect on pioglitazone+atorvastatin induction of myocardial 15-epi-LPXA4: pioglitazone+atorvastatin pretreated rats; for effect on myocardial 15-epi-LPXA4 levels: 8 h before harvest
Description: as §1, §2

PGE2 = experiment: Myocardial PGE2 levels (ELISA) in treated rats; type: in vivo, Sprague-Dawley rats; conditions: for effect on pioglitazone+atorvastatin increase of myocardial PGE2: pioglitazone+atorvastatin pretreated rats; for myocardial PGE2 levels: mean ±SEM
Description: as §1, §2

lipoxin A4 = experiment: Myocardial lipoxin A4 levels (ELISA) in treated rats; type: in vivo, Sprague-Dawley rats; conditions: for effect on pioglitazone+atorvastatin effect on myocardial lipoxin A4: pioglitazone+atorvastatin pretreated rats
Description: as §1, §2

COX2 [3] = conditions: intravenous 1400 W, same dose as herein; 3-day pretreatment with atorvastatin 10 mg/kg/d; cited from earlier work
[4] = Infarct size after 30 minute coronary artery occlusion; type: in vivo; conditions: aspirin 20 mg/kg i.v. at end of 30 minute coronary artery occlusion; 3-day atorvastatin pretreatment
15-epi-LXA4 = conditions: normal human volunteers, cited from earlier work
15-epi-LPXA4 [5] = conditions: cited from earlier work; for effect on pioglitazone+atorvastatin effect on myocardial 15-epi-LPXA4 levels: rats treated with pioglitazone+atorvastatin
COX2 [6] = experiment: Biotin switch assay and COX2 immunoblot of myocardial samples; type: in vivo, rats; conditions: compared with the pioglitazone+atorvastatin group
Description: S-nitrosylation of COX2 was determined by the biotin switch method as previously described (Atar et al., 2006). Briefly, myocardial samples from the left ventricular wall of rats treated with lipopolysaccharide (group 4) and pioglitazone+atorvastain (group 8) were homogenized in HEN buffer (25 mM HEPES (pH 7.7)-0.1 mM EDTA-0.01 mM necuproine). The supernatant containing membrane fragments and the cytosolic protein were recovered. The samples were incubated for 30 mins at 4° C. with blocking solution containing HEN buffer, 0.1% SDS and 20 mM N-ethylmaleimide (NEM) to block free thiols.
Lysates were centrifuged at 16,000×g for 10 min at 4° C. Cold acetone was added to precipitate the proteins. The pellets were resuspended in HEN buffer with 1% SDS, with 20 mM sodium ascorbate added to decompose the SNO bonds. The resulting free thiols in the sample were reacted with 0.05 mM biotinylating agent, biocytin (MPB) for 30 mins at room temperature. The excess MPB was removed by additional protein precipitation in cold acetone. COX2 was immunoprecipitated with anti-COX2 polyclonal antibody. […] The biotinylated COX2 protein was detected with horseradish peroxidase-linked streptavidin. […] The signal densities of the biotinylated COX2 and total COX2 were quantified by an image-scanning densitometer and the ratio of the densities was calculated for each animal.

## CC(=N)NCc1cccc(CN)c1 [1400 W]
[1]; 1400 W
  effect on pioglitazone+atorvastatin increase of myocardial 6-keto-PGF1α: attenuated
15-epi-LPXA4 [2]; 1400 W 1 mg/kg i.v. alone
  effect on pioglitazone+atorvastatin induction of myocardial 15-epi-LPXA4: partially blocked
PGE2; 1400 W
  effect on pioglitazone+atorvastatin increase of myocardial PGE2: completely blocked
Lipoxin A4; 1400 W alone
  effect on pioglitazone+atorvastatin effect on myocardial lipoxin A4: not attenuated
COX2 [3]
  effect on augmentation of COX2 activity by atorvastatin: blocked

## CC(=O)Oc1ccccc1C(=O)O [Aspirin]
[1]; LPS + aspirin 10 mg/kg, p<0.001 versus LPS alone, mean ±SEM
  myocardial 6-keto-PGF1α levels: 76.70 ± 0.25 pg/mg
[1]; LPS + aspirin 50 mg/kg, p<0.001 versus LPS alone, mean ±SEM
  myocardial 6-keto-PGF1α levels: 27.66 ± 0.23 pg/mg
[1]; LPS + aspirin 200 mg/kg, p<0.001 versus LPS alone, mean ±SEM
  myocardial 6-keto-PGF1α levels: 25.39 ± 0.22 pg/mg
[1]; aspirin alone 10 mg/kg, p=0.48 versus control
  myocardial 6-keto-PGF1α levels: 22.35 pg/mg
[1]; aspirin alone 50 mg/kg, p=0.001 versus control, mean ±SEM
  myocardial 6-keto-PGF1α levels: 20.97 ± 0.51 pg/mg
[1]; aspirin 10 mg/kg
  effect on pioglitazone+atorvastatin increase of myocardial 6-keto-PGF1α: attenuated
[1]; aspirin 50 mg/kg
  effect on pioglitazone+atorvastatin increase of myocardial 6-keto-PGF1α: attenuated
[4]
  effect on infarct size limiting effect of atorvastatin: completely abrogated
15-epi-LPXA4 [2]; aspirin alone, oral 10 mg/kg
  effect on myocardial 15-epi-LPXA4 levels: no effect
15-epi-LPXA4 [2]; aspirin alone, oral 50 mg/kg
  effect on myocardial 15-epi-LPXA4 levels: no effect
15-epi-LPXA4 [2]; i.v. LPS + oral aspirin 10 mg/kg, p=0.08 versus LPS alone
  effect on LPS induction of myocardial 15-epi-LPXA4: did not significantly alter
15-epi-LPXA4 [2]; i.v. LPS + oral aspirin 50 mg/kg, p<0.001 versus LPS alone
  effect on LPS induction of myocardial 15-epi-LPXA4: augmented
15-epi-LPXA4 [2]; i.v. LPS + oral aspirin 200 mg/kg, p<0.001 versus LPS alone
  effect on LPS induction of myocardial 15-epi-LPXA4: augmented
15-epi-LPXA4 [2]; aspirin 10 mg/kg
  effect on pioglitazone+atorvastatin induction of myocardial 15-epi-LPXA4: attenuated
15-epi-LPXA4 [2]; aspirin 50 mg/kg
  effect on pioglitazone+atorvastatin induction of myocardial 15-epi-LPXA4: completely blocked
PGE2; LPS + aspirin 10 mg/kg, p<0.001 versus LPS alone
  myocardial PGE2 levels: 48.70 ± 3.02 pg/mg
PGE2; LPS + aspirin 50 mg/kg, p<0.001 versus LPS alone
  myocardial PGE2 levels: 41.68 ± 0.24 pg/mg
PGE2; LPS + aspirin 200 mg/kg, p<0.001 versus LPS alone
  myocardial PGE2 levels: 33.72 ± 0.46 pg/mg
PGE2; aspirin alone 10 mg/kg, not significant versus control
  myocardial PGE2 levels: 34.48 ± 0.21 pg/mg
PGE2; aspirin alone 50 mg/kg, not significant versus control
  myocardial PGE2 levels: 33.68 ± 0.24 pg/mg
PGE2; aspirin 10 mg/kg
  effect on pioglitazone+atorvastatin increase of myocardial PGE2: attenuated
PGE2; aspirin 50 mg/kg
  effect on pioglitazone+atorvastatin increase of myocardial PGE2: completely blocked
15-epi-LXA4; 650 mg/d
  effect on 15-epi-LXA4: did not increase
15-epi-LXA4
  blood levels of 15ELX at 81 mg/d compared with 325 mg/d: greater
Lipoxin A4; LPS + aspirin 10 mg/kg
  effect on LPS effect on myocardial lipoxin A4: did not alter
Lipoxin A4; LPS + aspirin 50 mg/kg
  effect on LPS effect on myocardial lipoxin A4: did not alter
Lipoxin A4; LPS + aspirin 200 mg/kg, p<0.001 versus each of the other groups
  effect on LPS effect on myocardial lipoxin A4: augmented
Lipoxin A4; aspirin alone, 10 mg/kg
  effect on myocardial lipoxin A4: did not affect
Lipoxin A4; aspirin alone, 50 mg/kg
  effect on myocardial lipoxin A4: did not affect
Lipoxin A4; aspirin alone
  effect on pioglitazone+atorvastatin effect on myocardial lipoxin A4: not attenuated

## CC(C)c1c(C(=O)Nc2ccccc2)c(-c2ccccc2)c(-c2ccc(F)cc2)n1CC[C@@H](O)C[C@@H](O)CC(=O)O [atorvastatin]
15-epi-LPXA4 [5]; 3 days oral 5 and 10 mg/kg/d, but not 2 mg/kg/d, each drug alone
  effect on myocardial 15-epi-LPXA4 levels: increased

## Cc1onc(-c2ccccc2)c1-c1ccc(S(N)(=O)=O)cc1 [valdecoxib]
15-epi-LPXA4 [5]
  effect on pioglitazone+atorvastatin effect on myocardial 15-epi-LPXA4 levels: blocked

## CC(c1cc2ccccc2s1)N(O)C(N)=O (stereo not shown) [zileuton]
15-epi-LPXA4 [5]
  effect on pioglitazone+atorvastatin effect on myocardial 15-epi-LPXA4 levels: blocked

## lipopolysaccharide [LPS]
[1]; LPS alone, p<0.001 versus control, mean ±SEM
  myocardial 6-keto-PGF1α levels: 80.56 ± 0.21 pg/mg
15-epi-LPXA4 [2]; LPS 10 mg/kg i.v. alone
  effect on myocardial 15-epi-LPXA4 levels: increased
PGE2; LPS alone, p<0.001 versus control
  myocardial PGE2 levels: 70.31±0.26
Lipoxin A4; LPS alone
  effect on myocardial lipoxin A4 levels: small increase
COX2 [6]
  total COX2 immunoblot signal intensity: stronger
